Source: PubChem BioAssay (NCI)
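Compound exposure: 48 hours, 5 concentrations, 96-well plates. GI50 = concentration required for 50% inhibition of growth. TGI: total growth inhibition.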

Columns and labels:
Assay in all cases: DTP human tumour cell line panel, 48 h
HOP-92 NSCLC = tested on: HOP-92 NSCLC
NCI-H522 lung = tested on: NCI-H522 lung
TK-10 renal = tested on: TK-10 renal
MDA-MB-435 = tested on: MDA-MB-435
SF-268 CNS = tested on: SF-268 CNS
EKVX NSCLC = tested on: EKVX NSCLC
HS 578T breast = tested on: HS 578T breast
BT-549 breast = tested on: BT-549 breast
PC-3 prostate = tested on: PC-3 prostate
MDA-MB-468 breast = tested on: MDA-MB-468 breast
MOLT-4 leukemia = tested on: MOLT-4 leukemia
RXF 393 renal = tested on: RXF 393 renal
MCF7 breast = tested on: MCF7 breast
OVCAR-5 ovarian = tested on: OVCAR-5 ovarian
T-47D breast = tested on: T-47D breast
DU-145 prostate = tested on: DU-145 prostate
SF-539 CNS = tested on: SF-539 CNS
UACC-257 melanoma = tested on: UACC-257 melanoma
RPMI-8226 leukemia = tested on: RPMI-8226 leukemia
OVCAR-4 ovarian = tested on: OVCAR-4 ovarian
HCC-2998 colon = tested on: HCC-2998 colon
SF-295 CNS = tested on: SF-295 CNS
A549 NSCLC = tested on: A549 NSCLC
A498 renal = tested on: A498 renal
HOP-62 NSCLC = tested on: HOP-62 NSCLC
SN12C renal = tested on: SN12C renal
SK-OV-3 ovarian = tested on: SK-OV-3 ovarian
K-562 leukemia = tested on: K-562 leukemia
NCI-H23 lung = tested on: NCI-H23 lung
HT29 colon = tested on: HT29 colon
KM12 colon = tested on: KM12 colon
NCI-H226 lung = tested on: NCI-H226 lung
HCT-116 colon = tested on: HCT-116 colon
OVCAR-3 ovarian = tested on: OVCAR-3 ovarian
SNB-19 CNS = tested on: SNB-19 CNS
OVCAR-8 ovarian = tested on: OVCAR-8 ovarian
SK-MEL-28 melanoma = tested on: SK-MEL-28 melanoma
LOX IMVI melanoma = tested on: LOX IMVI melanoma
SK-MEL-5 melanoma = tested on: SK-MEL-5 melanoma
CCRF-CEM leukemia = tested on: CCRF-CEM leukemia
NCI-H460 lung = tested on: NCI-H460 lung
ACHN renal = tested on: ACHN renal
SNB-75 CNS = tested on: SNB-75 CNS
MDA-MB-231 breast = tested on: MDA-MB-231 breast
HL-60(TB) leukemia = tested on: HL-60(TB) leukemia
HCT-15 colon = tested on: HCT-15 colon
IGROV1 ovarian = tested on: IGROV1 ovarian
SW-620 colon = tested on: SW-620 colon
UACC-62 melanoma = tested on: UACC-62 melanoma
NCI/ADR-RES ovarian = tested on: NCI/ADR-RES ovarian
UO-31 renal = tested on: UO-31 renal
MALME-3M melanoma = tested on: MALME-3M melanoma
SK-MEL-2 melanoma = tested on: SK-MEL-2 melanoma
U251 CNS = tested on: U251 CNS
786-0 renal = tested on: 786-0 renal
SR leukemia = tested on: SR leukemia
CAKI-1 renal = tested on: CAKI-1 renal
M14 melanoma = tested on: M14 melanoma
COLO 205 colon = tested on: COLO 205 colon

COc1ccc(NC(=O)N/N=C/c2c[nH]c3ccccc23)cc1
GI50 (HOP-92 NSCLC): 2290 nM | TGI (HOP-92 NSCLC): 38300 nM | GI50 (NCI-H522 lung): 249 nM | TGI (NCI-H522 lung): 879 nM | GI50 (TK-10 renal): 7830 nM | TGI (TK-10 renal): 98200 nM | GI50 (MDA-MB-435): 255 nM | TGI (MDA-MB-435): 1890 nM | GI50 (SF-268 CNS): 5440 nM | TGI (SF-268 CNS): > 81400 nM | GI50 (EKVX NSCLC): 3410 nM | TGI (EKVX NSCLC): > 100000 nM | GI50 (HS 578T breast): 1130 nM | TGI (HS 578T breast): > 100000 nM | GI50 (BT-549 breast): 670 nM | TGI (BT-549 breast): > 62800 nM | GI50 (PC-3 prostate): 1650 nM | TGI (PC-3 prostate): > 100000 nM | GI50 (MDA-MB-468 breast): 911 nM | TGI (MDA-MB-468 breast): 4400 nM | GI50 (MOLT-4 leukemia): 502 nM | TGI (MOLT-4 leukemia): 50700 nM | GI50 (RXF 393 renal): 1000 nM | TGI (RXF 393 renal): 11300 nM | GI50 (MCF7 breast): 610 nM | TGI (MCF7 breast): > 100000 nM | GI50 (OVCAR-5 ovarian): 2000 nM | TGI (OVCAR-5 ovarian): > 83700 nM | GI50 (T-47D breast): 1310 nM | TGI (T-47D breast): > 100000 nM | GI50 (DU-145 prostate): 2050 nM | TGI (DU-145 prostate): > 64100 nM | GI50 (SF-539 CNS): 391 nM | TGI (SF-539 CNS): 2200 nM | GI50 (UACC-257 melanoma): > 100000 nM | TGI (UACC-257 melanoma): > 100000 nM | GI50 (RPMI-8226 leukemia): 1090 nM | TGI (RPMI-8226 leukemia): 15300 nM | TGI (OVCAR-4 ovarian): > 100000 nM | GI50 (HCC-2998 colon): 1910 nM | TGI (HCC-2998 colon): 24100 nM | GI50 (SF-295 CNS): 458 nM | TGI (SF-295 CNS): > 32700 nM | GI50 (A549 NSCLC): 815 nM | TGI (A549 NSCLC): > 100000 nM | GI50 (A498 renal): > 40700 nM | TGI (A498 renal): > 88300 nM | GI50 (HOP-62 NSCLC): 724 nM | TGI (HOP-62 NSCLC): > 100000 nM | GI50 (SN12C renal): 1030 nM | TGI (SN12C renal): > 56700 nM | GI50 (SK-OV-3 ovarian): 1980 nM | TGI (SK-OV-3 ovarian): > 100000 nM | GI50 (K-562 leukemia): 235 nM | TGI (K-562 leukemia): > 77100 nM | GI50 (NCI-H23 lung): 2140 nM | TGI (NCI-H23 lung): > 51700 nM | GI50 (HT29 colon): 357 nM | TGI (HT29 colon): 5010 nM | GI50 (KM12 colon): 448 nM | TGI (KM12 colon): > 54500 nM | GI50 (NCI-H226 lung): 11000 nM | TGI (NCI-H226 lung): > 100000 nM | GI50 (HCT-116 colon): 389 nM | TGI (HCT-116 colon): 22600 nM | GI50 (OVCAR-3 ovarian): 380 nM | TGI (OVCAR-3 ovarian): 2810 nM | GI50 (SNB-19 CNS): 1830 nM | TGI (SNB-19 CNS): > 100000 nM | GI50 (OVCAR-8 ovarian): 801 nM | TGI (OVCAR-8 ovarian): 24600 nM | GI50 (SK-MEL-28 melanoma): 3310 nM | TGI (SK-MEL-28 melanoma): > 100000 nM | GI50 (LOX IMVI melanoma): 615 nM | TGI (LOX IMVI melanoma): > 46600 nM | GI50 (SK-MEL-5 melanoma): 524 nM | TGI (SK-MEL-5 melanoma): 5180 nM | GI50 (CCRF-CEM leukemia): 379 nM | TGI (CCRF-CEM leukemia): 17600 nM | GI50 (NCI-H460 lung): 579 nM | TGI (NCI-H460 lung): 26300 nM | GI50 (ACHN renal): 1740 nM | TGI (ACHN renal): > 100000 nM | GI50 (SNB-75 CNS): 1410 nM | TGI (SNB-75 CNS): 12100 nM | GI50 (MDA-MB-231 breast): 1010 nM | TGI (MDA-MB-231 breast): 56000 nM | GI50 (HL-60(TB) leukemia): 279 nM | TGI (HL-60(TB) leukemia): 1530 nM | GI50 (HCT-15 colon): 384 nM | TGI (HCT-15 colon): > 52700 nM | GI50 (IGROV1 ovarian): 646 nM | TGI (IGROV1 ovarian): > 100000 nM | GI50 (SW-620 colon): 517 nM | TGI (SW-620 colon): > 100000 nM | GI50 (UACC-62 melanoma): 364 nM | TGI (UACC-62 melanoma): > 47300 nM | GI50 (NCI/ADR-RES ovarian): 308 nM | TGI (NCI/ADR-RES ovarian): 1440 nM | GI50 (UO-31 renal): 1870 nM | TGI (UO-31 renal): > 100000 nM | GI50 (MALME-3M melanoma): 547 nM | TGI (MALME-3M melanoma): > 100000 nM | GI50 (SK-MEL-2 melanoma): 294 nM | TGI (SK-MEL-2 melanoma): 28800 nM | GI50 (U251 CNS): 431 nM | TGI (U251 CNS): > 89100 nM | GI50 (786-0 renal): 1520 nM | TGI (786-0 renal): 28100 nM | GI50 (SR leukemia): 250 nM | TGI (SR leukemia): > 53400 nM | GI50 (CAKI-1 renal): 678 nM | TGI (CAKI-1 renal): > 100000 nM | GI50 (M14 melanoma): 340 nM | TGI (M14 melanoma): > 100000 nM | GI50 (COLO 205 colon): 586 nM | TGI (COLO 205 colon): 3120 nM
